As a reminder, the IC50 is the point on the concentration scale where inhibition reaches its midpoint. As usually defined, the CC50 is the concentration that lowers cell viability or growth by half. A higher CC50 goes with better tolerance by the cells. For orientation: melting point means the temperature of the solid-liquid transition. The IC90 is the concentration at which the effect reaches the 90% level.

Like-named read-outs stand apart in the source and are kept apart here.

In data set [1] the test system is Trypanosoma brucei brucei trypomastigotes, suramin-sensitive strain (Squib 427). As to the kind of experiment: T. b. brucei growth/viability assay (resazurin). The data set is classed as cell-based. The settings on record: Trypanosoma brucei, 72 h, 3 days. The procedure: After 3 days, parasite growth was assessed fluorimetrically following the addition of resazurin. After 24 h at 37 °C, fluorescence was measured (λex = 550 nm, λem = 590 nm). The results were expressed as a percentage reduction in parasite growth/viability compared to control wells, and a 50% inhibitory concentration (IC50) was calculated.

For data set [2], the system named is Trypanosoma cruzi (Tulahuen CL2 β-galactosidase) amastigotes in hMRC-5SV2 cells. As to the kind of experiment: T. cruzi intracellular amastigote assay (β-galactosidase/CPRG). The settings on record: Trypanosoma cruzi, TULAHUEN, 168 h, intracellular amastigotes, 7 days; read-out: IC50 T. cruzi intramacrophage amastigotes (converted). The data set is classed as cell-based. In outline:
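Infected hMRC-5SV2 fibroblasts exposed 7 days to compound at 64, 16, 4, 1 and 0.25 μM. Parasite burden read as β-galactosidase cleavage of CPRG at 540 nm after 4 h at 37 °C. Percent growth reduction versus control wells, IC50 calculated.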

Data set [3] relates to L. infantum (MHOM/MA(BE)/67) amastigotes in primary peritoneal mouse macrophages. Briefly: L. infantum intramacrophage amastigote assay (microscopic burden). Format: cell-based, Leishmania infantum. The settings on record: Leishmania infantum, Macrophage, 120 h, 5 days, mouse macrophages as host. In short, it runs like this: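 Amastigotes in primary peritoneal mouse macrophages were exposed 5 days to 64, 16, 4, 1 and 0.25 μM compound. Amastigotes per macrophage counted microscopically; percent burden reduction versus untreated wells gave IC50.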

Another data set in a line: in vitro. The settings on record: human, CC50 hMRC-5 (cytotoxicity).
Another data set relates to murine macrophages. Briefly: Qualitative toxicity toward mouse macrophages. The settings on record: concentration at which toxicity was observed; 64, 16 and 4 µM tested. On the procedure:
The cytotoxicity of compounds was evaluated toward human diploid embryonic lung fibroblast hMRC-5SV2 cells, derived from fetal lung tissue and first described in 1970. hMRC-5SV2 cells were cultured in 96-well plates with five concentrations of the compound (64, 16, 4, 1, and 0.25 μM). After 3 days of incubation, the cell viability was assessed fluorimetrically after the addition of resazurin, and fluorescence was measured (λex = 550 nm, λem = 590 nm). The results were expressed as a percentage reduction in cell growth/viability compared to control wells, and a 50% cytotoxic concentration (CC50) was calculated. The reference cytotoxic drugs were tamoxifen or ivermectin. Additionally, toxicity toward mouse macrophages was qualitatively observed. Three concentrations were included (64, 16, and 4 µM), and the range of toxicity was ranked from the least toxic to the most toxic compound.

In data set [4] the test system is WT LV9 L. donovani promastigotes. Briefly: L. donovani promastigote assay (MTT), wild type. The data set is classed as cell-based. The settings on record: Leishmania donovani, 72 h, 3 days; read-out: IC50 ± SD WT LV9 L. donovani promastigotes. The procedure:
(§1) L. donovani promastigote forms from the logarithmic phase culture were suspended to yield 10^6 cells/mL. Miltefosine was used as the antileishmanial reference compound. Compounds to be evaluated and miltefosine were distributed in the plates by making a serial dilution. The final concentrations used were between 100 µM and 50 nM. Triplicates were used for each concentration. After a 3-day incubation period at 27 °C in the dark and under a 5% CO2 atmosphere, the viability of the promastigotes was assessed using the tetrazolium-dye (MTT) colorimetric method, which measures the reduction of a tetrazolium component (MTT) into an insoluble formazan product by the mitochondria of viable cells. After the incubation of the cells with the MTT reagent, a detergent solution (Triton X100, HCl) was added to lyse the cells and dissolve the colored crystals. The absorbance at 570 nm, directly proportional to the number of viable cells, was measured using an ELISA plate reader. The results were expressed as the concentrations inhibiting parasite growth by 50% (IC50) ± SD after a 3-day incubation period.

Data set [5] deals with HePC-R L. donovani promastigotes. Briefly: L. donovani promastigote assay, miltefosine-resistant strain. The settings on record: Leishmania donovani, read-out: IC50 ± SD HePC-R L. donovani promastigotes. The data set is classed as cell-based. On the procedure: as §1
In data set [6] the test system is L. donovani LV9 axenic amastigotes. As to the kind of experiment: L. donovani axenic amastigote assay (SYBR green I). The data set is classed as cell-based, Leishmania donovani. The settings on record: for IC50: read-out: IC50 ± SD L. donovani axenic amastigotes. On the procedure:
L. donovani amastigote forms were suspended to yield 10^7 cells/mL. The final compound concentrations used were 100 µM, 10 µM, 1 µM, 500 nM, and 50 nM. Duplicates were used for each concentration. Cultures were incubated at 37 °C for 72 h in the dark and under a 5% CO2 atmosphere; then, the viability of the amastigotes was assessed using the SYBR® green I (Invitrogen, France) incorporation method. Parasite growth was determined by using SYBR® Green I, a dye with marked fluorescence enhancement upon contact with parasite DNA. Parasites were lysed following Direct PCReCell Genotyping without DNA isolation protocol (Euromedex, Souffelweyersheim, France). A total of […] of SYBR Green I was added to each well, and the contents were mixed. Fluorescence was measured with Mastercylcer® ep realplex (Eppendorf, Montesson, France). The fluorescence obtained was compared to those from the range obtained with different parasite densities.

The subject of data set [7] is WT LV9 L. donovani intramacrophage amastigotes. As to the kind of experiment: L. donovani intramacrophage amastigote assay. The data set is classed as cell-based, Leishmania donovani.
Data set [8] is described as follows: Solubility observations (crystals in assay, insolubility in solvents). The data set is classed as physicochemical. The settings on record: noted in L. donovani assay, Table S5.
In data set [9] the test system is Trypanosoma brucei brucei trypomastigotes, suramin-sensitive strain (Squib 427). Details: method as in earlier work. The settings on record: Table 1, preliminary study; read-out: IC50 T. b. brucei; cited from earlier work.
Data set [10] relates to Trypanosoma cruzi (Tulahuen CL2 β-galactosidase) amastigotes in hMRC-5SV2 cells. Details: method as in earlier work. The settings on record: Table 1, preliminary study; read-out: IC50 T. cruzi; cited from earlier work.
The subject of data set [11] is L. infantum (MHOM/MA(BE)/67) amastigotes in primary peritoneal mouse macrophages. Details: method as in earlier work. The settings on record: Table 1, preliminary study; cited from earlier work.
Setting [12] is: Leishmania donovani, WT LV9, ± SD in Tables S5/S6, read-out: IC50 L. donovani intramacrophage amastigotes.

Take `O=C(/C=C/c1ccccc1Cl)/C=C/c1ccccc1Cl` [1e]: the IC50 is 7.8 µM in [1]; 12 µM in [2]; 6.8 µM in data set [3]; 3.6 ± 0.1 µM in data set [4]; 7.8 ± 1 µM in data set [5]; > 200 µM in [6] (Leishmania donovani, LV9). The 50% inhibitory concentration (IC50) in [7] (setting [12]) stood at 7.4 ± 1.7 µM. Moreover, the 50% cytotoxic concentration (CC50) at 3 days in “in vitro” was found to be 29.4 µM. In addition, the “Toxicity (T) observed toward murine macrophages” value (“Toxicity” for short) with murine macrophages is on record as “T2 (T2 = 16)”. Also, in the data set on macrophages, the “observed macrophage death / lysis observed at” value is reported as > 37.5 µM.

As for `O=C(/C=C/c1ccc(Cl)cc1)/C=C/c1ccc(Cl)cc1` [1f], the 50% inhibitory concentration (IC50) in [1] is 2.1 µM; in [2], 35.6 µM; in [3], > 60 µM; in [4], 6.7 ± 0.6 µM; in data set [5] it was 3.7 ± 0.2 µM; in data set [6] (Leishmania donovani, LV9) it was > 200 µM. Also, the 50% inhibitory concentration (IC50) in data set [7] (setting [12]) was determined as 6.3 ± 1.9 µM. The CC50 at 3 days in “in vitro” amounted to 42.4 µM. The “presence of crystals (asterisk mark)” value in data set [8] was “* (presence of crystals at > 50 µM)”. For the same compound, the “observed macrophage death / lysis observed at” value in the data set on macrophages was > 50 µM.

For the compound `C=CCOc1ccc(OC)cc1/C=C/C(=O)/C=C/c1cc(OC)ccc1OCC=C` [1n], the melting point was determined as 83 °C. In data set [1], the IC50 turned out to be 26.6 µM. In addition, the IC50 in [2] was 24.2 µM. The IC50 in data set [3] was > 64 µM. Also, the CC50 at 3 days in the data set “in vitro” is > 16 µM.

In the case of `COc1cc(Br)c(O)c(/C=C/C(=O)/C=C/c2cc(OC)cc(Br)c2O)c1` [1p], the IC50 in [1] is ≤ 0.3 µM; in data set [2] it was ≤ 0.3 µM; in data set [3], 1 µM; in data set [9] it was ≤ 0.3 µM; in data set [10], ≤ 0.3 µM. The CC50 at 3 days in “in vitro” stood at 1 µM. Further, the “Toxicity” value with murine macrophages was “T1 (T1 = 64)”.

Regarding `O=C(/C=C/c1ccc(C(F)(F)F)cc1)/C=C/c1ccc(C(F)(F)F)cc1` [1r], the IC50 is 0.2 µM in data set [1], 1.6 µM in data set [2], > 64 µM in data set [3] and > 64 µM in data set [11]. Half-maximal cytotoxicity in “in vitro” (CC50 at 3 days) was put at 26.2 µM.

In the case of `O=C(/C=C/c1ccc(OC(F)(F)F)cc1)/C=C/c1ccc(OC(F)(F)F)cc1` [1s], the IC50 was 0.5 µM in data set [1], 1.8 µM in [2], > 64 µM in data set [3] and > 64 µM in [11]. For the same compound, in “in vitro”, it took 32.8 µM to reach half-maximal cytotoxicity (CC50 at 3 days).

On to `N#Cc1ccc(/C=C/C(=O)/C=C/c2ccc(C#N)cc2)cc1` [1t], for which the IC50 in [1] is 1.5 µM; in [2], 11.9 µM; in data set [3], 5.1 µM; in data set [4], 6.6 ± 0.6 µM; in data set [5] it was 2.4 ± 0.1 µM; in data set [7] (setting [12]), > 50 µM. The compound further returned a CC50 at 3 days in the data set “in vitro” of 57.1 µM. The “Toxicity” value in the data set with murine macrophages is “T2 (T2 = 16)”. The “IC50 ± SD L. donovani axenic amastigotes” value in data set [6] (LV9) is “T at 6.25-200 µM”. The “observed macrophage death / lysis observed at” value in the data set on macrophages is reported as > 100 µM.

Consider `Cl.Cl.O=C(/C=C/c1cccnc1)/C=C/c1cccnc1` [1x], for which the IC50 is ≤ 0.3 µM in data set [1], 0.9 µM in [2], 1 µM in [3] and ≤ 0.3 µM in data set [9]. Moreover, it took 1.1 µM to reach half-maximal cytotoxicity in “in vitro” (CC50 at 3 days). Moreover, the “Toxicity” value in the data set on murine macrophages is “T1 (T1 = 64)”.

Regarding `Cl.Cl.O=C(/C=C/c1ccncc1)/C=C/c1ccncc1` [1y], the IC50 is ≤ 0.3 µM in data set [1]; ≤ 0.3 µM in [2]; 1 µM in [3]; ≤ 0.3 µM in [9]; ≤ 0.3 µM in data set [10]. Moreover, in “in vitro”, the CC50 at 3 days came to 1.1 µM. Also, in the data set with murine macrophages, the “Toxicity” value was “T3 (T3 = 4)”.

As for `C[C@@H]1[C@H](O)[C@@H](C)/C=C/C=C/C=C/C=C/C=C/C=C/C=C/[C@H](O[C@@H]2O[C@H](C)[C@@H](O)[C@H](N)[C@@H]2O)C[C@@H]2O[C@](O)(C[C@@H](O)C[C@@H](O)[C@H](O)CC[C@@H](O)C[C@@H](O)CC(=O)O[C@H]1C)C[C@H](O)[C@H]2C(=O)O` [Amphotericin B, reference compound], the 50% cytotoxic concentration (CC50) at 3 days in the data set “in vitro” was > 64 µM. Besides, the IC50 in data set [4] came to 0.04 ± 0.01 µM; in data set [6] (Leishmania donovani, LV9) it was 0.024 µM; in data set [7] (setting [12]), 0.04 µM; in data set [7] (Leishmania donovani, as worded in footnote a of Table S5, value stands in a middle column of the table, read-out: IC50 against leishmanial WT and HePC-R intramacrophagic amastigotes), 0.08 ± 0.024 µM. In addition, the IC90 is 0.03 µM in data set [6] (Leishmania donovani, Table S6, read-out: IC90 ± SD LV9 axenic amastigotes) and 0.05 µM in data set [7] (Leishmania donovani, Table S6, read-out: IC90 ± SD LV9 intramacrophage amastigotes). In addition, in data set [6] (Table S6), the “IC99 ± SD LV9 axenic amastigotes” value is 0.039 µM. Also, in [7] (Table S6), the “IC99 ± SD LV9 intramacrophage amastigotes” value is 0.07 µM.

Values taken from PMC11013284, “Chemoselective Synthesis and Anti-Kinetoplastidal Properties of 2,6-Diaryl-4H-tetrahydro-thiopyran-4-one S-Oxides: Their Interplay in a Cascade of Redox Reactions from Diarylideneacetones” (Molecules, 2024).
